The results in this text go back to patent US8476197B2, “Aminopropenoates as fungicides” (priority 2009, dated 2013).

As usually defined, the Log P is the decadic logarithm of the partition coefficient of the neutral form, usually between octanol and water. Read a high Log P as a more lipophilic compound.

Marks after values point to notes of the source that are not given here.

The conditions of one data set: pH 2.3.
For the molecule `CC(C)C(C)NC(=C(C#N)C(=O)OC1CCC1)c1cccnc1Cl` (stereo not drawn) [Compound 1284], the “Log P” value was 3.79^[c]; 3.79^[b].

For the molecule `CCOC(=O)C(C#N)=C(Nc1ccccc1SC)c1ccc(Cl)nc1Cl` [Compound 360], the “Log P” value is 3.97.

For the molecule `CCOC(=O)C(C#N)=C(Nc1cccc(F)c1F)c1cccnc1Cl` [Compound 1604], the “Log P” value stood at 3.

The data set is the same for the next values; noted with them: pH 2.7.
Turning to `COC(=O)C(C#N)=C(NC1(C(F)(F)F)CCCCC1)c1cccnc1Cl` [Compound 1113], the “Log P” value was 2.99^[a].

Consider `CCOC(=O)C(C#N)=C(NC(C)CCc1ccccc1)c1cccnc1Cl` (stereo not drawn) [Compound 1167], for which the “Log P” value is 3.92^[a].

For the molecule `CCOC(=O)C(C#N)=C(NC1CCC1)c1ccncc1Cl` [Compound 798], the “Log P” value was 2.84^[a].

In the case of `CCOC(=O)C(C#N)=C(NC(C(N)=O)C(C)C)c1cccnc1Cl` (stereo not drawn) [Compound 732], the “Log P” value was 2.07^[a].

As to `CCOC(=O)C(C#N)=C(NC(C)COCc1ccc(C(F)(F)F)cc1)c1cccnc1Cl` (stereo not drawn) [Compound 731], the “Log P” value was 4.2^[a].

Regarding `CCOC(=O)C(C#N)=C(NC(C)c1nc(C)c(C)s1)c1sccc1Br` (stereo not drawn) [Compound 92], the “Log P” value was 3.8^[a].

For `COC(=O)C(C#N)=C(NC(C)C1CCCO1)c1cccnc1Cl` (stereo not drawn) [Compound 126], the “Log P” value was 2.17^[a].

Regarding `CCCCCCC(C)NC(=C(C#N)C(=O)OC)c1sc(C)nc1C(F)(F)F` (racemic) [Compound 816], the “Log P” value was 4.86^[a].

`CCNC(=O)C(C)NC(=C(C#N)C(=O)OCC)c1cccnc1Cl` (stereo not drawn) [Compound 728]: the “Log P” value is 2.1^[a].

Consider `COC(=O)C(C#N)=C(NC(c1ccccc1)C1CC1)c1cccnc1Cl` (stereo not drawn) [Compound 398], for which the “Log P” value is 3.24^[a].

On to `COC(=O)C(C#N)=C(NC(C)c1ccc(C)cc1)c1sc(C)nc1C(F)(F)F` (mixture of isomers) [Compound 443], for which the “Log P” value was 4.01^[a].

On to `COC(=O)C(C#N)=C(NC(C)c1ncc(C)s1)c1sc(C)nc1C(F)(F)F` (racemic) [Compound 182], for which the “Log P” value is 3.09^[a].

Consider `CCOC(=O)C(C#N)=C(NC(C)c1ccccn1)c1ccnc(Br)c1F` (racemic) [Compound 1395], for which the “Log P” value was 3^[a].

Take `CCOC(=O)C(C#N)=C(NC1CCC1)c1ccnc(C(F)(F)F)c1Cl` [Compound 1621]: the “Log P” value was 3.78^[a].

Consider `CCOC(=O)C(C#N)=C(NC(C)c1nccs1)c1sc(C)nc1C(F)(F)F` (racemic) [Compound 142], for which the “Log P” value was 3.13^[a].

`CCOC(=O)C(C#N)=C(NC(C)COCc1ccccc1)c1cccnc1Cl` (stereo not drawn) [Compound 1162]: the “Log P” value is 3.71^[a].

Consider `CCOC(=O)C(C#N)=C(NC(C)C1CCCCC1)c1sccc1Br` (stereo not drawn) [Compound 875], for which the “Log P” value is 5.11^[a].

As for `CCOC(=O)C(C#N)=C(NC(CC)c1cccc(Cl)c1)c1cn(C)nc1C(F)F` (racemic) [Compound 558], the “Log P” value is 3.87^[a].

In the case of `COC(=O)C(C#N)=C(NC(C)(C)C=C(Cl)Cl)c1sc(C)nc1C(F)(F)F` [Compound 1104], the “Log P” value was 3.73^[a].

On to `CCOC(=O)C(C#N)=C(NCc1nccs1)c1c(C)nn(C)c1Cl` [Compound 86], for which the “Log P” value is 2.13^[a].

Regarding `C=CCCCC(C=C)NC(=C(C#N)C(=O)OCC)c1ccsc1Br` (racemic) [Compound 1018], the “Log P” value was 4.67^[a].

For `COC(=O)C(C#N)=C(NCc1ncc(C)s1)c1sc(C)nc1C(F)(F)F` [Compound 183], the “Log P” value was 2.63^[a].

Regarding `COC(=O)C(C#N)=C(NC1CC(C)CCC1C)c1cccnc1Cl` (stereo not drawn) [Compound 1057], the “Log P” value is 3.73^[a].

With `COC(=O)C(C#N)=C(NC(C)(C)C#Cc1ccc(C#N)cc1)c1sc(C)nc1C(F)(F)F` [Compound 1092], the “Log P” value was 3.78^[a].

Regarding `CCOC(=O)C(C#N)=C(NCc1nccs1)c1cccnc1Cl` [Compound 66], the “Log P” value was 2.07^[a].

Regarding `CCOC(=O)C(C#N)=C(NC1CCC1)c1cccnc1Cl` [Compound 1186], the “Log P” value is 2.92^[a].

In the case of `COC(=O)C(C#N)=C(NC(C)c1nccs1)c1cn(C)nc1C(F)F` (racemic) [Compound 61], the “Log P” value is 2.13^[a].

As to `CCOC(=O)C(C#N)=C(Nc1ccc(OC)cc1)c1cn(C)nc1C(F)F` [Compound 495], the “Log P” value was 2.77^[a].

With `CCOC(=O)C(C#N)=C(NC(C)C1CC1)c1sc(Cl)nc1Cl` (stereo not drawn) [Compound 893], the “Log P” value was 3.87^[a].

Regarding `CCOC(=O)C(C#N)=C(NCc1nccs1)c1c(C)nn(C)c1F` [Compound 80], the “Log P” value is 2.01^[a].

On to `CCOC(=O)C(C#N)=C(NC(C)(C)C#Cc1ccc(C)cc1)c1sc(C)nc1C(F)(F)F` [Compound 1098], for which the “Log P” value is 4.92^[a].

As to `CCOC(=O)C(C#N)=C(NC(c1cc2ccccc2s1)C(F)(F)F)c1c(C)nn(C)c1Cl` (racemic) [Compound 137], the “Log P” value is 4.46^[a].

With `CCOC(=O)C(C#N)=C(NC(C)Cc1c[nH]c2ccccc12)c1cn(C)nc1C(F)(F)F` (stereo not drawn) [Compound 65], the “Log P” value was 3.73^[a].

Turning to `CCOC(=O)C(C#N)=C(NC(C)c1nccs1)c1c(C(F)(F)F)nn(C)c1F` (mixture of isomers) [Compound 308], the “Log P” value was 3.09^[a].

Regarding `CCOC(=O)C(C#N)=C(NC(C)c1nccs1)c1c(C)nn(C)c1F` (racemic) [Compound 38], the “Log P” value is 2.37^[a].

On to `C#CC(C)NC(=C(C#N)C(=O)OCC)c1sc(C)nc1C(F)(F)F` (stereo not drawn) [Compound 1050], for which the “Log P” value is 3.06^[a].

In the case of `CCOC(=O)C(C#N)=C(NC(C)C1(Cl)CC1)c1sccc1Br` (stereo not drawn) [Compound 771], the “Log P” value is 3.94^[a].

On to `COC(=O)C(C#N)=C(NC1C(C)CCCC1C)c1cccnc1Cl` (stereo not drawn) [Compound 1058], for which the “Log P” value was 3.63^[a].

As to `CCOC(=O)C(C#N)=C(NCc1nc2ccccc2s1)c1cn(C)nc1C(F)F` [Compound 191], the lipophilicity (Log P) is 2.82^[a].

As for `CCOC(=O)C(C#N)=C(NC(C)COc1ccc(F)cc1)c1cccnc1Cl` (stereo not drawn) [Compound 1166], the “Log P” value was 3.62^[a].

Turning to `CCC(NC(=C(C#N)C(=O)OC)c1cccnc1Cl)C1CCCCC1` (stereo not drawn) [Compound 762], the “Log P” value is 4.07^[a].

Turning to `CCOC(=O)C(C#N)=C(NC(C)c1ccccn1)c1ccnc(SC)c1Cl` (racemic) [Compound 1393], the “Log P” value is 3.35^[a].

`C#CC(C)NC(=C(C#N)C(=O)OCC)c1cn(C)nc1C(F)F` (stereo not drawn) [Compound 1049]: the “Log P” value is 2.44^[a].

On to `CCOC(=O)C(C#N)=C(NC(C)Cc1cccnc1)c1cccnc1Cl` (mixture of isomers) [Compound 296], for which the “Log P” value is 1.57^[a].

For the molecule `C#CCC(C#N)NC(=C(C#N)C(=O)OCC)c1cccnc1Cl` (racemic) [Compound 1258], the “Log P” value was 2.37^[a].

For `CCOC(=O)C(C#N)=C(NC(C)COCc1ccccc1F)c1cn(C)nc1C(F)F` (stereo not drawn) [Compound 740], the “Log P” value was 3.48^[a].

For the molecule `COC(=O)C(C#N)=C(NC(C)(C)C#N)c1sc(C)nc1C(F)(F)F` [Compound 1010], the “Log P” value is 3.04^[a].

For `CCOC(=O)C(C#N)=C(NC1(c2c(F)cccc2F)CC1)c1cn(C)nc1C(F)F` [Compound 559], the “Log P” value is 3.17^[a].

In the case of `CCOC(=O)C(C#N)=C(NC(C)C1CCCO1)c1cccnc1Cl` (stereo not drawn) [Compound 1531], the “Log P” value is 2.71^[a].

For the molecule `CCOC(=O)C(C#N)=C(NC1CC2CCC1C2)c1cccnc1Cl` (stereo not drawn) [Compound 1081], the “Log P” value was 3.7^[a].

On to `CCOC(=O)C(C#N)=C(NC(C)CN(C)C)c1c(C)nn(C)c1F` (racemic) [Compound 584], for which the “Log P” value is 0.96^[a].

As for `COCCNC(=O)C(C#N)=C(NC(C)c1ccccn1)c1cn(C)nc1C(F)F` (racemic) [Compound 1288], the “Log P” value was 1.75^[a].

Consider `CCOC(=O)C(C#N)=C(NC(C)c1nccs1)c1cn(C)nc1I` (racemic) [Compound 1247], for which the “Log P” value was 3.46^[a].

Consider `CCOC(=O)C(C#N)=C(NC(C)Cc1nccs1)c1cccnc1Cl` (mixture of isomers) [Compound 294], for which the “Log P” value is 2.4^[a].

On to `COC(=O)C(C#N)=C(NC(C)CCCC(C)C)c1sc(C)nc1C(F)(F)F` (stereo not drawn) [Compound 927], for which the “Log P” value was 4.78^[a].

Consider `CCCCCC(C)NC(=C(C#N)C(=O)OCC)c1sccc1Br` (stereo not drawn) [Compound 844], for which the “Log P” value was 5.03^[a].

For `COC(=O)C(C#N)=C(NC(C)c1ccc(Cl)cc1)c1cn(C)nc1C(F)F` (stereo not drawn) [Compound 356], the “Log P” value was 3.31^[a].

With `C=CCCCC(C=C)NC(=C(C#N)C(=O)OC)c1sc(C)nc1C(F)(F)F` (stereo not drawn) [Compound 1019], the “Log P” value was 4.19^[a].

On to `CCOC(=O)C(C#N)=C(NC(C)C1CC1)c1cc(Cl)sc1Cl` (stereo not drawn) [Compound 887], for which the “Log P” value was 4.36^[a].

Take `CCOC(=O)C(C#N)=C(NC1CC1CC)c1cccnc1Cl` (stereo not drawn) [Compound 1190]: the “Log P” value is 3.23^[a].

For `CC(NC(=C(C#N)C(=O)NC1CC1)c1cn(C)nc1C(F)F)c1nccs1` (racemic) [Compound 1279], the “Log P” value was 2.04^[a].

For `COC(=O)C(C#N)=C(NCc1nc2ccccc2s1)c1sc(C)nc1C(F)(F)F` [Compound 184], the “Log P” value is 3.15^[a].

`CCOC(=O)C(C#N)=C(NC(C#N)Cc1ccccc1)c1cccnc1Cl` (racemic) [Compound 1259]: the “Log P” value is 3.02^[a].

On to `CCOC(=O)C(C#N)=C(NC(C)COCc1ccc(C(F)(F)F)cc1)c1cn(C)nc1C(F)F` (stereo not drawn) [Compound 1233], for which the “Log P” value was 3.99^[a].

For `COC(=O)C(C#N)=C(Nc1ccc(OC)cc1)c1sc(C)nc1C(F)(F)F` [Compound 485], the “Log P” value was 3.06^[a].

The data set is the same for the next values; noted with them: pH 7.5.
As for `CC(NC(=C(C#N)C(=O)OCC(F)(F)F)c1cccnc1Cl)c1nccs1` (stereo not drawn) [Compound 30], the “Log P” value is on record as 2.67.

For the molecule `CC(C)C(C)NC(=C(C#N)C(=O)OC1CCC1)c1cccnc1Cl` (stereo not drawn) [Compound 1284], the “Log P” value was 3.79^[c]; 3.79^[b].

As to `CCOC(=O)C(C#N)=C(Nc1ccccc1SC)c1ccc(Cl)nc1Cl` [Compound 360], the “Log P” value came to 3.79.

With `CCOC(=O)C(C#N)=C(NC(CC)C(=O)OC)c1cccnc1Cl` (stereo not drawn) [Compound 582], the “Log P” value is reported as 2.27.

As for `CCOC(=O)C(C#N)=C(NC(C)C1CC1)c1ccc(Cl)nc1Cl` (mixture of isomers) [Compound 914], the “Log P” value worked out at 3.54.

On to `COC(=O)C(C#N)=C(NC(C(N)=O)C(C)C)c1cccnc1Cl` (stereo not drawn) [Compound 572], for which the “Log P” value came to 1.58.

Regarding `CCOC(=O)C(C#N)=C(Nc1cccc(F)c1F)c1cccnc1Cl` [Compound 1604], the “Log P” value is 2.88.
